In patent US10610501B2, “Methods and materials for reducing ischemia-reperfusion injury” (The University of Pécs (Pécsi Tudományegyetem), priority 2014, dated 2020):

Tests used:
Type in all cases: in vivo, rat
[1] = tested on: Superoxide dismutase (SOD); experiment: Superoxide dismutase (SOD) enzyme activity in washed red blood cells after ischemia-reperfusion
Experimental: (§1) The rats were divided randomly into four groups. The first group was a group of operated rats that underwent ischemia followed by an hour-long reperfusion without being treated with ABA (operated untreated control). The other three groups included operated rats that underwent ischemia followed by an hour-long reperfusion with an ABA treatment (intravenously; final concentration of 100 μM) either 20 minutes, 40 minutes, or 60 minutes before reperfusion. Upon completion of the one-hour reperfusion, the rats were anesthetized with intraperitoneal injection of ketamine (40 mg/kg) and diazepam (5 mg/kg) and evaluated.
(§2) Rats were randomly divided into five groups. The first group was a group of operated rats that underwent ischemia followed by an hour-long reperfusion without being treated with ABA (operated untreated control). […] Upon completion of the one-hour reperfusion, the rats were anesthetized with intraperitoneal injection of ketamine (40 mg/kg) and diazepam (5 mg/kg) and evaluated.
(§3) In another dosage experiment, rats were randomly divided into five groups. […] Upon completion of the one-hour reperfusion, the rats were anesthetized with intraperitoneal injection of ketamine (40 mg/kg) and diazepam (5 mg/kg) and evaluated.
(§4) Following the anesthesia, an abdominal opening technique was performed by a midline laparotomy incision. […] Right after the one-hour reperfusion treatment period, peripheral blood samples were collected and evaluated.
(§5) Malondialdehyde (MDA) levels were determined in anti-coagulated whole blood using a colorimetric assay as described elsewhere (Ohakawa et al., Anal. Biochem., 95:351-8 (1979)). Reduced glutathione (GSH) levels, as opposed to oxidized GSH, were measured in anti-coagulated whole blood using a colorimetric assay as described elsewhere (Sedlak and Lindsay, Anal. Biochem., 25:192-205 (1968)). Superoxide dismutase (SOD) enzyme activity was measured in washed red blood cells using a colorimetric assay as described elsewhere (Misra and Fridovich, J. Biol. Chem., 247:3170-3175 (1972)). […]

[2] = tested on: Wistar albino rats, ischemia-reperfusion; experiment: Malondialdehyde (MDA) levels in whole blood after ischemia-reperfusion (infrarenal aorta occlusion)
Experimental: as §1, §2, §3, §4, §5

PPAR-γ mRNA = PPAR-γ mRNA expression in renal tissue, semi-quantitative RT-PCR; conditions: ABA 40 minutes before reperfusion, FIG. 6
Experimental: (§6) In another dosage experiment, rats were randomly divided into five groups. The first group was a group of operated rats that underwent ischemia followed by an hour-long reperfusion without being treated with ABA (operated untreated control). The other four groups included operated rats that underwent ischemia followed by an hour-long reperfusion with an intravenous ABA treatment 40 minutes before reperfusion at a final concentration of either 10 μM, 50 μM, 100 μM, or 500 μM of ABA. Upon completion of the one-hour reperfusion, the rats were anesthetized with intraperitoneal injection of ketamine (40 mg/kg) and diazepam (5 mg/kg) and evaluated.
(§7) Following the anesthesia, an abdominal opening technique was performed by a midline laparotomy incision. See, FIGS. 1A-F. After repositioning the intestines, the aorta came into sight and was carefully isolated. After the isolation process, the aorta was occluded for one hour (ischemic period). The clamp was released at the end of the ischemic period to start the reperfusion for one hour. Right after the one-hour reperfusion treatment period, peripheral blood samples were collected and evaluated.
(§8) Total RNA was extracted from the renal tissue samples with TRI reagent (Sigma-Aldrich) according to the manufacturer's instructions. […]

skeletal muscle = experiment: Histological analysis of skeletal muscle (m. tensor fasciae latae) after ischemia-reperfusion; conditions: 100 μM i.v. at 20th minute of 1 h ischemia, 1 h reperfusion; versus ischemic reperfused operated controls; FIG. 7C
Experimental: Wistar albino rats (250-280 g) were sham operated (control without ischemia-reperfusion treatment), subjected to ischemia followed by reperfusion (ischemia-reperfusion control), or subjected to ischemia followed by reperfusion with ABA being injected intravenously at a final concentration of 100 μM at the 20th minute of the one hour long ischemic period, which was followed by a one-hour reperfusion. After the one-hour reperfusion periods, tissue samples were obtained from the hind limb (m. tensor fasciae latae) of the rats and fixed in 10% buffered formaldehyde prior to being processed in a paraffin-embedded block. Four-micrometer-thick sections were cut and stained with hematoxylin and eosin.

[3] = tested on: Wistar albino rats, ischemia-reperfusion; experiment: Reduced glutathione (GSH) levels in whole blood after ischemia-reperfusion
Experimental: as §1, §2, §3, §4, §5

SOD mRNA = SOD mRNA expression in renal tissue, semi-quantitative RT-PCR; conditions: increasing amount of ABA (10-500 μM) injected 40 minutes before reperfusion, FIG. 5
Experimental: as §6, §7, §8

[4] = tested on: Wistar albino rats, ischemia-reperfusion; experiment: Total thiol groups (SH) in whole blood after ischemia-reperfusion; conditions: 10, 50, 100 and 500 μM, 40 minutes before reperfusion; FIG. 4
Experimental: as §6
as §4, with “incision. See, FIGS. 1A-F. After repositioning the intestines, the aorta came into sight and was carefully isolated.” for “incision.”
Malondialdehyde (MDA) levels were determined in anti-coagulated whole blood using a colorimetric assay as described elsewhere (Ohakawa et al., Anal. Biochem., 95:351-8 (1979)). Reduced glutathione (GSH) levels, as opposed to oxidized GSH, were measured in anti-coagulated whole blood using a colorimetric assay as described elsewhere (Sedlak and Lindsay, Anal. Biochem., 25:192-205 (1968)). […]

[5] = tested on: Wistar albino rats, ischemia-reperfusion; experiment: Inhibition of oxidative stress during the ischemia-reperfusion process, stress markers taken together
Experimental: as §6, with “Rats were” for “In another dosage experiment, rats were”, “treatment 20” for “treatment 40”
as §3, §4
Malondialdehyde (MDA) levels were determined in anti-coagulated whole blood using a colorimetric assay as described elsewhere (Ohakawa et al., Anal. Biochem., 95:351-8 (1979)). […]

Structure (SMILES): CC1=CC(=O)CC(C)(C)[C@@]1(O)/C=C/C(C)=C\C(=O)O [ABA, (2Z,4E)-5-[(1S)-1-hydroxy-2,6,6-trimethyl-4-oxocyclohex-2-en-1-yl]-3-methylpenta-2,4-dienoic acid]
- SOD activity ([1]; 100 μM final concentration, all time-points tested (0, 20, 40, 60 minutes before reperfusion), FIG. 2): increases in SOD activity at all time-points tested
- SOD activity ([1]; 10, 100 and 500 μM, 40 minutes before reperfusion, FIG. 4): increase in SOD activity
- SOD activity ([1]; 100 and 500 μM, 20 minutes before reperfusion, FIG. 3): increase in SOD activity
- level of MDA ([2]; 100 μM final concentration, superior mesenteric vein, 0, 20, 40 and 60 minutes before reperfusion, blood after 1 h ischemia and 1 h reperfusion, FIG. 2): efficiently diminished the level of MDA at all time-points tested
- level of MDA ([2]; 10, 50, 100 and 500 μM final concentration, 20 minutes before reperfusion, FIG. 3): efficiently diminished the level of MDA
- level of MDA ([2]; 100 and 500 μM final concentration, 40 minutes before reperfusion, FIG. 4): efficiently diminished the level of MDA
- expression of PPAR-γ mRNA (PPAR-γ mRNA): increased expression of PPAR-γ mRNA
- extracellular oedema (fiber separation) (skeletal muscle): minimal extracellular oedema
- intercellular vacuolization (skeletal muscle): near complete absence of intercellular vacuolization
- tissue and cell architecture (skeletal muscle): noticeable helped to preserve of the normal tissue and cell architecture
- reduced GSH levels ([3]; 100 μM final concentration, administered 40 or 60 minutes prior to reperfusion, FIG. 2): increases in reduced GSH levels
- reduced GSH levels ([3]; 50, 100 and 500 μM, 20 minutes before reperfusion, FIG. 3): decrease in the levels of reduced GSH levels
- reduced GSH levels ([3]; 50, 100 and 500 μM, 40 minutes before reperfusion, FIG. 4): increase in the levels of reduced GSH levels
- SOD mRNA expression (SOD mRNA): increased levels of SOD mRNA expression
- levels of SH (total thiol groups) [4]: increase in the levels of SH
- concentration as low as which ABA inhibits oxidative stress ([5]; 20 minutes before reperfusion): 10 µM
- levels as low as which ABA inhibits oxidative stress ([5]; 40 minutes before reperfusion): 10 to 50 µM
